Experiment [1] concerns phosphatases in insect cell (SF9) lysate. Description: Inhibition of phosphatases in insect cell lysate. It counts as biochemical. To be noted: 1 mM orthovanadate (alone or with 27 mM mannitol), FIG. 4. How it is done:
270 mg insect cells (SF9) were collected, washed 3 times with 50 mM Hepes, 50 mM NaCl pH 7.0 and lysed using 2.5 ml M-Per (Pierce) for 10 min. After centrifugation the lysate was collected as the supernatant.
(§1) Subsequently, an aliquot of 10 μl was transferred from each mixture into a well of a microwell plate. 5 μl of a solution of a test peptide (R-R-L-I-E-D-A-E-pY-A-A-R-G (SEQ ID NO: 1); 1 mM in water) and 10 μl of a buffer containing 0.1 mM CaCl2, 50 mM Tris pH 7.0 were added to each well and incubated for 30 min at 37° C. Free phosphate resulting from the enzymatic hydrolysis was then detected via addition of 100 μl of a 1 M HCl solution additionally containing 0.034% [w/v] malachite green, 10 mM sodium molybdate and 3.4% [v/v] ethanol. The detection was performed for 10 min at RT while constantly agitating the microwell plate. Relative concentrations of free phosphate were detected following the determination of the extinction (620 nm) of each reaction well.

For experiment [2], the system named is phosphatases in COS7 cell lysate. Put plainly: Inhibition of phosphatases in COS7 cell lysate. The settings on record: 1 mM orthovanadate (alone or with 27 mM mannitol), FIG. 5. The class given is biochemical. How it is done:
COS7 cells were collected, washed 3 times with 50 mM Hepes, 50 mM NaCl pH 7.0 and lysed using 5 ml M-Per (Pierce) for 10 min. After centrifugation the lysate was collected as the supernatant.
as §1, with “to” for “into a well of”, “1M” for “1 M”, “3.4” for “3.4%”

The test system of the next experiment is phosphatase. To be noted: in the presence of complex-forming reagents like EDTA; cited from earlier work.

With `[O]=[V]([O-])([O-])[O-]` [Na3VO4, orthovanadate], the “phosphatase activity (residual)” value in experiment [1] amounted to 14%; in experiment [2], 52%. For the same compound, the “factor by which the phosphatase inhibiting effect is reduced” value in the experiment on phosphatase is recorded as “about 1,000”.

These data come from patent publication US8278086B2, “Enhancement of vanadium-containing phosphatase inhibitors” (Roche Diagnostics Operations, Inc., priority 2007, dated 2012).
